Tests used:
Type in all cases: cell-based
[1] = test system: P. aeruginosa strain PAO1; experiment: Biofilm prevention screen (96-well microplate, crystal violet); conditions: Pseudomonas aeruginosa, positive = prevention, negative = enhancement of biofilm formation, quadruplicate, read-out: average percentage reduction of biofilm formed relative to DMSO controls
Protocol: (§1) Overnight cultures of 3 mL are made of P. aeruginosa strain PAO1 (grown in R2A medium (Handbook of Microbiological Media; CRC Press, 1997, second edition, R. M. Atlas, ed.), modified to omit Mg^2+ but to include 0.3–0.5% fructose (pH 7.0) and 3 μM ferrous ammonium sulfate), P. fluorescens strain ATCC 13525 (grown in R2A modified to omit Mg^2+ but to include 0.3–0.5% sodium pyruvate (pH 7.0)), S. epidermidis strain ATCC 35984 (grown in a ¼ dilution of TSB (Handbook of Microbiological Media; CRC Press, 1997, second edition, R. M. Atlas, ed.) supplemented with 1% fructose (pH 7.0) and 3 μM ferrous ammonium sulfate). To each type of growth medium, HEPES (pH 7.3) is optionally added to a final concentration of 10 mM.
(§2) To PS, PVC, or PP (preferably PP or PVC) round-bottom, 96-well microplates containing 100 μl per well of the respective growth medium as described above, compounds to be tested (dissolved in DMSO) are added and mixed, to give a final concentration of 250–500 μM. These microplates then also are used to make successive dilutions of the compounds in the same respective growth medium to yield microplates containing final concentrations of, for example, 160 μM and 32 μM of the same set of compounds. Control wells are included in the dilution series that contain only DMSO. From the 3 ml overnight cultures, each of the three dilution plate sets is inoculated with 5 μl per well of a 1:1 dilution in the same liquid growth media of the appropriate culture. The covered plate is then incubated with shaking, at 30° C. (for P. aeruginosa or P. fluorescens) or 37° C. (for S. epidermidis), at 200 rpm, for 16–26 hours, in a humidity controlled environment.
(§3) Cells present in biofilm attached to the microplate surface are stained with CV either after removal of the liquid from each well, followed by rinsing three times (aspiration and addition) with 150 μl per well phosphate buffered saline solution (PBS) and final addition of 100 μl per well of PBS, or by direct addition of stain to bacterial cultures without rinsing. To 100 μl per well of PBS or of bacterial culture, 25 μl/well of 1% CV solution (in ˜10% ethanol) is added. After incubation at room temperature for 45 minutes, the dye solution is removed from the plates. Residual dye is immediately removed by gentle rinsing with a stream of deionized water by filling and inverting the plates 4–5 times, or by using an automated pipettor. Rinsed plates are air-dried at room temperature for 0.5–2 hours. Bound dye is extracted by the addition of 150 μL per well of 95% ethanol, followed by vigorous mixing for 10–15 seconds and incubation for 45 minutes at room temperature without shaking. Subsequently, either undiluted or diluted (in ethanol) samples of extracted CV are transferred to flat bottom, polystyrene microtiter plates and absorbances at 586 nm were measured in a microplate reader. Readings from wells containing compounds are compared to the average of data from control wells that contain only DMSO. Replicate samples are measured, and results are reported as averages of the replicate well data points.
(§4) Data are expressed in terms of the average percentage reduction of biofilm formed in the presence of each compound, relative to the DMSO controls, for quadruplicate samples. Assays are run using the three compound concentrations indicated. Positive numbers indicate prevention of biofilm formation by a compound, and negative numbers indicate enhancement of biofilm formation by a compound (percentage coefficients of variation are ≦10%).

[2] = test system: P. fluorescens strain ATCC 13525; experiment: as above; conditions: Pseudomonas fluorescens, positive = prevention, negative = enhancement of biofilm formation, quadruplicate, read-out: average percentage reduction of biofilm formed relative to DMSO controls; for inhibition at 32 µM: ATCC13525, 32 μM; for inhibition at 160 µM: ATCC13525, 160 μM; for inhibition at 390 µM: ATCC13525, 390 μM
Protocol: as §1, §2, §3, §4

[3] = test system: S. epidermidis strain ATCC 35984; experiment: as above; conditions: Staphylococcus epidermidis, positive = prevention, negative = enhancement of biofilm formation, quadruplicate, read-out: average percentage reduction of biofilm formed relative to DMSO controls; for inhibition at 32 µM: ATCC35984, 32 μM; for inhibition at 160 µM: ATCC35984, 160 μM; for inhibition at 390 µM: ATCC35984, 390 μM
Protocol: as §1, §2, §3, §4

[4] = test system: P. aeruginosa strain PAO1; experiment: Improved biofilm dispersion screen (already-formed biofilms, crystal violet); conditions: Pseudomonas aeruginosa, 30 mM NaOH step, positive = dispersion, negative = enhancement of pre-existing biofilm, quadruplicate, read-out: average percentage reduction of biofilm relative to the two control values (dispersion)
Protocol: (§5) A modification of method disclosed in Reference Example 2, which greatly improves the sensitivity and reproducibility of the dispersion screen is hereby disclosed. […] In the modification described herein, compounds are added in the presence of the fresh liquid growth media, such that the resultant biofilms continue to grow, unless a test compound triggers their dispersion. Overnight cultures are made as above, and 100 μL of the appropriate liquid growth media are dispensed into duplicate 96 well microplates—in this fashion, two identical microplates are set up for each bacterial species to be assayed. Neither compounds nor DMSO are added prior to the inoculation of bacteria, and growth in the duplicate plates for 24 hours is allowed using the conditions specified in Reference Example 1. After growth of biofilm to be tested in the wells, cells present in biofilm attached to one of the duplicate microplates is stained with CV, quantitated as described in Reference Example 1, and the data for the entire plate averaged, resulting in a growth control value, t0. The remaining replicate of each microplate pairs is treated with compounds in DMSO, or DMSO alone for control wells, by first removing the cell suspensions from the wells, then adding fresh 100 μL volumes of the same appropriate liquid growth media, followed by direct addition and mixing of the compound DMSO solutions to give final compound concentrations of 390 μM. Incubation of the compound-containing microplates is then continued for an additional 22–26 hours using the same conditions described in Reference Example 1. Cell suspensions are then removed, 100 μL per well of a 0 mM NaOH (S. epidermidis), 20 mM NaOH (P. fluorescens), or 30 mM NaOH (P. aeruginosa) solution in PBS is added, and incubation at room temperature is allowed for 30 minutes. No addition of NaOH is made to the S. epidermidis suspension since a test assay indicated no amplification by base with S. epidermidis. The microplates are subsequently rinsed three times with 150 μL per well of PBS, followed by final liquid removal, staining with CV and quantitation as described in Reference Example 1. Data for each well that contained compound result in a compound value, R, and data for control wells that contained DMSO only are averaged to generate a second control value, t24. The effect of each compound tested on dispersion of the biofilm compared to the two control values is calculated thus: [formula] […] Data are expressed in terms of the average percentage reduction of biofilm formed in the presence of each compound, relative to the two control values, for quadruplicate samples. Assays are run as described above, using compound concentrations of 390 μM. Positive numbers indicate dispersion (reduction) of pre-existing biofilms by a compound, and negative numbers indicate enhancement (stimulation of growth) of pre-existing biofilms by a compound (percentage coefficients of variation are ≦15%).

[5] = test system: P. fluorescens strain ATCC 13525; experiment: as above; conditions: Pseudomonas fluorescens, ATCC13525, 20 mM NaOH step, positive = dispersion, negative = enhancement of pre-existing biofilm, quadruplicate, read-out: average percentage reduction of biofilm relative to the two control values (dispersion)
Protocol: as §5

[6] = test system: S. epidermidis strain ATCC 35984; experiment: as above; conditions: Staphylococcus epidermidis, ATCC35984, no NaOH, positive = dispersion, negative = enhancement of pre-existing biofilm, quadruplicate, read-out: average percentage reduction of biofilm relative to the two control values (dispersion)
Protocol: as §5

| Structure (SMILES) | inhibition at 32 µM [1] [%] | inhibition at 160 µM [1] [%] | inhibition at 390 µM [1] [%] | inhibition at 32 µM [2] [%] | inhibition at 160 µM [2] [%] | inhibition at 390 µM [2] [%] | inhibition at 32 µM [3] [%] | inhibition at 160 µM [3] [%] | inhibition at 390 µM [3] [%] | inhibition at 390 µM [4] [%] | inhibition at 390 µM [5] [%] | inhibition at 390 µM [6] [%] |
| --- | --- | --- | --- | --- | --- | --- | --- | --- | --- | --- | --- | --- |
| CCCCCCCCNC(=O)[C@H]1CCCN1C(=O)OC(C)(C)C [Compound 154] | -1 | -9 | -15 | 4 | 10 | 11 | -16 | -42 | 52 | -63 | 10 | 0 |
| CCCCNC(=O)[C@@H]1CCCN1C(=O)OC(C)(C)C [Compound 155] | -5 | 2 | 6 | 10 | 4 | 4 | -3 | -1 | 21 | -12 | 3 | -4 |
| CCCCCCCCCCNC(=O)[C@H]1CCCN1C(=O)OC(C)(C)C [Compound 158] | 1 | -34 | -40 | 3 | -11 | -40 | -10 | 52 | 54 | -53 | -79 | 0 |
| CCCCCCCCCCCCNC(=O)[C@H]1CCCN1C(=O)OC(C)(C)C [Compound 159] | -9 | -38 | -50 | -1 | -3 | -13 | -9 | -20 | -3 | -55 | -94 | 0 |
| CCCCCCCCCCCCNC(=O)[C@@H]1CCCN1C(=O)OC(C)(C)C [Compound 160] | -2 | -44 | -59 | -1 | 0 | -18 | -9 | 20 | 29 | -52 | -44 | 0 |
| CCCCNC(=O)[C@H]1CCCN1 [Compound 162] | -9 | -13 | -9 | 7 | 1 | 11 | -4 | -8 | -47 | -23 | 0 | 0 |
| CCCCCCNC(=O)[C@H]1CCCN1 [Compound 163] | 1 | 22 | 46 | 5 | 6 | 22 | -3 | -5 | -10 | 4 | 12 | -5 |
| CCCCCCCCNC(=O)[C@H]1CCCN1 [Compound 164] | 6 | 11 | 12 | 8 | 7 | 54 | -8 | -1 | -35 | 38 | 47 | -3 |
| CCCCNC(=O)[C@@H]1CCCN1 [Compound 165] | 2 | -16 | 1 | 10 | 4 | 20 | -6 | -15 | -12 | 0 | 6 | -3 |

— patent US7018642B2 (The Procter & Gamble Company, priority 2001, dated 2006)
